Publication PMC11362529, “Exploring the neuroprotective potential of Nrf2-pathway activators against annonacin toxicity” (Scientific Reports, 2024)

How the values were obtained:
Assay type in all cases: cell-based, human
LUHMES cells [1] = test: Neurite arborization analysis (Tuj-1 immunofluorescence); conditions: 48 h
Method: Cells were seeded in differentiation medium, onto 24-well microplates containing PLO/FN coated 13 mm Ø coverslips, and submitted to the described pharmacological treatments for 48 h. After this period, the medium was removed and cells were washed once with warm HBSS, and fixed with 4% PFA (paraformaldehyde) in PBS, for 20 min at RT (room temperature). After fixation, cells were washed twice with PBS and permeabilized with 0.1% Triton™ X-100 in PBS, for 20 min at RT. Next, cells were blocked in 1.5% NHS (normal horse serum) in PBS, for 1 h at RT, and incubated overnight with 1:1,000 Tuj-1 Alex 549-conjugated antibody (#801208, BioLegend, San Diego, CA, USA) in 1.5% NHS in PBS. After washing three times with PBS, cell nuclei were stained with 1:5,000 DAPI (4ʹ,6-diamidino-2-phenylindole, Thermo Fisher Scientific) in PBS, for 15 min at RT. The coverslips were mounted in mowiol, and left to dry for 24 h before imaging. Ten to fifteen images per condition, across triplicates, from different fields of view were taken on a fluorescence microscope Leica-DFC9000GTC (Leica) with 200 × magnification (20 × objective, 10 × intermediate magnification). Identical acquisition parameters were used for all images. Neurites density and arborization were quantified on TIFF exported images using the “neurite analyzer” plugin described before. The average value of the different view fields per experimental condition was taken and reported as fold change compared to the control (DMSO-treated) condition.

LUHMES cells [2] = test: Mitochondrial superoxide (MitoSOX / calcein AM); conditions: 48 h
Method: As before, cells seeded on PLO/FN-coated 24-well microplates were treated for 48 h with 20 nM of annonacin and the selected concentrations of Nrf2-pathway activators, in glucose-reduced medium. After this period, the medium was removed, and the cells were washed once with warm HBSS before being simultaneously incubated with 0.5 µM of MitoSOX™ red (Thermo Fisher Scientific) and 1 µM of calcein AM for 30 min at 37 °C. Next, the cells were again washed with HBSS and fresh HBSS was added to maintain cell viability during live-image acquisition on a fluorescence microscope Leica-DFC9000GTC (Leica). The cells were kept under controlled environmental conditions, and similar image acquisition parameters were used for all images, as explained before. We acquired ten to fifteen images per condition, from different view fields across triplicates, with a 200 × magnification (20 × objective, 10 × intermediate magnification). Quantification of MitoSOX and calcein AM FI was performed using the ImageJ software. Briefly, TIFF exported images were submitted to background subtraction using the rolling ball method with a radius of 50 pixels. Channel-specific thresholds were applied to all images to define the ROI, and the FI were measured as integrated density and reported as arbitrary units (a. u.). The MitoSOX FI was normalized to cell viability estimated by calcein AM FI, to obtain a MitoSOX FI/calcein FI ratio. The average ratio of the different view fields per experimental condition was taken and reported as fold change relative to the control (DMSO-treated) condition.

[3] = test system: Nrf2-knockdown LUHMES cells; test: Cell viability in Nrf2-knockdown cells exposed to annonacin (calcein); conditions: Nrf2 siRNA, compound + 20 nM annonacin, 48 h
Method: (§1) The calcein AM green dye (Thermo Fisher Scientific) was diluted in DMSO to obtain a 1 mM stock solution. The stock solution was further diluted in HBSS (Hanks' balanced salt solution), immediately before incubation, to achieve a final working concentration of 1 μM in the well. The medium was removed, the cells were washed once with warm HBSS, and 200 µl of calcein working solution was added to each well. For background correction, 200 µl of calcein working solution was added to a well without cells (background control). After 30 min of incubation at 37 °C, the calcein solution was removed and the cells were washed once with HBSS. Cells were lysed in a 200 µl volume of 1% Triton™ X-100 in PBS (phosphate buffered saline) and the lysate transferred to a 96‐well black plate for the readout. The fluorescence signal was measured on a FLUOstar® Omega plate reader (BMG LabTech, Ortenberg, Germany) at λ Ex/Em = 485/530 nm and data was analyzed with the MARS data analysis software (BMG LabTech). For background correction, we subtracted the background control signal from the measured values of all experimental conditions. Data were expressed as percentage of viability relative to the control (DMSO-treated) condition.
LUHMES cells seeded on PLO/FN coated 48-well microplates were left to differentiate for 5 days, before being transfected with 25 nM of NRF2-targeting (gene ID 4780) or negative control siRNA (siTOOLs Biotech, Planegg, Germany), in Opti-MEM + GlutaMax medium (Thermo Fisher Scientific) with 0.4% of lipofectamine RNAiMax. After 24 h, the medium was removed and replaced with glucose-reduced medium for the pharmacological treatments, similar as described in the previous sections. Cell viability was determined by calcein assay, after 48 h of treatment, as explained before.

LUHMES cells [4] = test: Protective effects against annonacin toxicity, calcein viability assay; conditions: with 20 nM annonacin, glucose-reduced medium, 48 h; 40 μM Ki 696–2, 1 μM HPP-D, 15 μM ezetimibe, 4 μM licochalcone A; most protective or highest non-toxic concentration for the others
Method: as §1
For pharmacological treatments, we acquired several previously described Nrf2-pathway activators: ezetimibe (Cayman), licochalcone A (MedChem Express, New Jersey, NJ, USA), bardoxolone methyl, saracatinib and PP2 (AbMole BioScience Inc., Houston, TX, USA). The enantiomers Ki 696–1 and Ki 696–2, and the compound HPP-D were kindly provided by Orion Pharma (Espoo, Finland). All compounds were dissolved in DMSO and stored in small aliquots at -80 °C to avoid freeze–thaw cycles. Compound general toxicity was determined on PLO/FN double-coated 48-well microplates as follows: after 4 days of differentiation, LUHMES cells were incubated with the different Nrf2-pathway activators at concentrations ranging from 1 nM to 100 µM, for 96 h. The cell viability was assessed by calcein assay on day 8 of differentiation. Non-toxic concentrations of the Nrf2-pathway activators were selected and used in the pharmacological treatments, in combination with 20 nM of annonacin, in glucose-reduced differentiation medium, over a period of 48 h, similar to an in vitro model reported before. The protective effects of Nrf2-pathway activators against annonacin toxicity were determined in terms of cell viability with the calcein assay.

[5] = protective concentration of compound + 20 nM annonacin

SMILES	number of quadruple points (LUHMES cells [1]; [5])	total branch length (LUHMES cells [1]; [5])	MitoSOX/calcein ratio (LUHMES cells [2]; [5])	protective effects against annonacin toxicity in Nrf2-knockdown cells [3]	reduction of annonacin toxicity (LUHMES cells [4])	number of quadruple points (LUHMES cells [1]; 20 nM annonacin alone)	total branch length (LUHMES cells [1]; 20 nM annonacin alone)	MitoSOX fluorescence intensity (LUHMES cells [2]; 20 nM annonacin alone)	MitoSOX/calcein ratio (LUHMES cells [2]; 20 nM annonacin alone)
O=C1[C@H](CC[C@H](O)c2ccc(F)cc2)[C@@H](c2ccc(O)cc2)N1c1ccc(F)cc1 [ezetimibe]	0.71 fold over control	significantly denser neural arborizations compared with the annonacin condition	to control levels	did not observe an abolishment of the neuroprotective effects	33%	–	–	–	–
CCCCCCCCCCCC[C@@H](O)[C@H]1CC[C@H]([C@H](O)CCCC[C@H](O)CCCCC[C@@H](O)CC2=CC(C)OC2=O)O1 (stereo partly shown) [annonacin]	–	–	–	–	–	0.31 fold over control	0.44 fold over control	no major changes in MitoSOX fluorescence intensity	significantly increased
C=CC(C)(C)c1cc(/C=C/C(=O)c2ccc(O)cc2)c(OC)cc1O [licochalcone A]	0.81 fold over control	significantly denser neural arborizations compared with the annonacin condition	to levels below control	slightly attenuated in Nrf2-knockdown cells	34.6%	–	–	–	–
Cn1c(Nc2nc3ccc(C(F)(F)F)cc3s2)nc2cc(C(=O)NCCOCCO)ccc21 [HPP-D]	approximately 0.50 fold over control	significantly denser neural arborizations compared with the annonacin condition	to control levels	slightly attenuated in Nrf2-knockdown cells	21%	–	–	–	–
